Measured values: patent publication US6362192B1, “2-(Pyrazolyloxy) -pyridin-3-ylacetic acid derivatives, agents containing the same and use thereof against noxious fungi and animal parasites” (BASF Aktiengesellschaft, priority 1998, dated 2002)

How the values were obtained:
Assay type in all cases: in vivo
[1] = system: Erysiphe graminis forma specialis tritici; test: Protective activity against Erysiphe graminis var. tritici (powdery mildew of wheat); details: 16 ppm, sprayed 24 h before inoculation, seedlings cv. Frühgold, assessed after 7 days; untreated control 80%
Experimental: 1) Protective Activity Against Erysiphe graminis var. tritici (Powdery Mildew of Wheat) Leaves of potted […] seedlings cv. “Frühgold” were sprayed to runoff point with an aqueous active compound preparation which had been prepared from a stock solution comprising 10% of active compound, 63% of cyclohexanone and 27% of emulsifier, and, 24 hours after the spray coating had dried on, dusted with spores of powdery mildew of wheat (Erysiphe graminis forma specialis tritici). The test plants were subsequently placed in a greenhouse at from 20 to 22° C. and a relative atmospheric humidity of 75 to 80%. After 7 days, the extent of mildew development was determined visually as % infection of the total leaf area.

Plasmopara viticola = test: Long-term activity against Plasmopara viticola on grapevines; details: 16 ppm, grapevines cv. Müller-Thurgau, inoculated 7 days after spraying; untreated control 75%
Description: 2) Long-term Activity Against Plasmopara viticola Leaves of potted grapevines cv. “Müller-Thurgau” were sprayed to runoff point with an aqueous active compound preparation which had been prepared from a stock solution comprising 10% of active compound, 63% of cyclohexanone and 27% of emulsifier. To assess the persistency of the substances, the plants were kept for 7 days in a greenhouse after the spray coating had dried on. Only then were the leaves inoculated with an aqueous zoospore suspension of Plasmopara viticola. The grapevines were then initially kept in a water vapor-saturated chamber at 24° C. for 48 hours and then in a greenhouse at 20-30° C. for 5 days. After this period of time, the plants were once more kept in a humid chamber for 16 hours to promote sporangiophore eruption. The extent of the infection on the undersides of the leaves was then assessed visually.

pyricularia oryzae = details: 16 ppm, rice seedlings cv. Tai-Nong 67, inoculated the next day, assessed after 6 days; untreated control 85%

CO/C=C(/C(=O)OC)c1cccnc1Oc1ccn(-c2ccc(Cl)cc2)n1 [I.3, Methyl methoxy-[2-(1-(4-chlorophenyl)-3-pyrazolyloxy)pyridin-3-yl]acrylate]
infection (mildew development as % infection of the total leaf area) [1]: 5% | infection on the undersides of the leaves (Plasmopara viticola): no infestation | infestation on the leaves (pyricularia oryzae): 15%
